According to patent US20180338980A1, “AROMATIC SULFONAMIDE DERIVATIVES” (BAYER PHARMA AKTIENGESELLSCHAFT, priority 2015, published 2018):

Molecular target: T1, P2X4 (Homo sapiens, UniProt Q99571)
T1 sequence (Q99571 1-388): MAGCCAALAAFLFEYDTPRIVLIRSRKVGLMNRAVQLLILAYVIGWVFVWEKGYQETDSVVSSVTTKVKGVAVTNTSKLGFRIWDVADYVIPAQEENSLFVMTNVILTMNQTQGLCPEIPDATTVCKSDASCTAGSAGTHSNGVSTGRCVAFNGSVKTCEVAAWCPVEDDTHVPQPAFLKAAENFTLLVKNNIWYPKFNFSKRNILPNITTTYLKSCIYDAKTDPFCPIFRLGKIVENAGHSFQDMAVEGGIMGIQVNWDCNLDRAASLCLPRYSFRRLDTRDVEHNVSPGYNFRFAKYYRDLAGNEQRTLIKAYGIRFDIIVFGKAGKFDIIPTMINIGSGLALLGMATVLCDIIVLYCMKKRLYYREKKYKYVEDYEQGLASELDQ
Assay: Assay B: human P2X4 receptor cell line, mitochondrial photina luminescence (agonist Bz-ATP at EC50)
Format: cell-based
Set-up: host or cells: HEK 293 (recombinant, constitutively expressing; with mitochondrial photina in Assay B)
Settings: HEK human P2X4 cell line, photina luminescence, agonist Bz-ATP at EC50, average; for Emax: read-out: human P2X4 Assay B avg Efficacy
Protocol: The identification of agonists and antagonists of the P2X4 receptor from humans and […] also the quantification of the activity of the compounds of the invention was performed by use of recombinant cell lines. […] The test cell lines constitutively express the mouse or human P2X4 receptors. Stimulation of the receptors with an agonist leads to a conformational change of P2X4 and influx of extracellular calcium ions through the ion channel. The cytoplasmatic calcium transient is detected via the calcium sensitive dye Fluo8 for the mouse P2×4 cell line or in case of the human P2×4 cell line a stably expressed calcium-sensitive photoprotein, mitochondrial photina, which, after reconstitution with the cofactor coelenterazine, emits light in dependence of calcium binding [Bovolenta S, Foti M, Lohmer S, Corazza S., J Biomol Screen. […] The strength of Fluo8 fluorescence signal or photina luminescence signal corresponds to the level of receptor activation. An inhibitor would decrease the signal depending on its potency and concentration.
The resulting light signal is measured immediately in the luminometer.

| Compound | IC50 [nM] | Emax [%] |
| --- | --- | --- |
| NS(=O)(=O)c1cc(NC(=O)Cc2ccccc2Cl)ccc1Oc1ccc[nH]c1=O [Example 075, 2-(2-Chlorophenyl)-N-{4-[(2-oxo-1,2-dihydropyridin-3-yl)oxy]-3-sulfamoylphenyl}acetamide] | 2230 | 77 |
| NS(=O)(=O)c1cc(NC(=O)Cc2ccccc2)ccc1Oc1ccccc1Cl [Example 076, N-[4-(2-Chlorophenoxy)-3-sulfamoylphenyl]-2-phenylacetamide] | – | 74 |
| NS(=O)(=O)c1cc(NC(=O)Cc2ccccc2)ccc1Oc1cncc(Cl)c1 [Example 078, N-{4-[(5-Chloropyridin-3-yl)oxy]-3-sulfamoylphenyl}-2-phenylacetamide] | 706 | 86 |
| NS(=O)(=O)c1cc(NC(=O)Cc2cccc(F)c2)ccc1Oc1cccc(Cl)c1 [Example 084, N-[4-(3-Chlorophenoxy)-3-sulfamoylphenyl]-2-(3-fluorophenyl)acetamide] | 213 | 57 |
| CC(C)c1ccccc1CC(=O)Nc1ccc(Oc2cccc(Cl)c2)c(S(N)(=O)=O)c1 [Example 087, N-[4-(3-Chlorophenoxy)-3-sulfamoylphenyl]-2-(2-isopropylphenyl)acetamide] | 196 | 76 |
| CCOc1ccccc1CC(=O)Nc1ccc(Oc2cccc(Cl)c2)c(S(N)(=O)=O)c1 [Example 088, N-[4-(3-Chlorophenoxy)-3-sulfamoylphenyl]-2-(2-ethoxyphenyl)acetamide] | 190 | 75 |
| NS(=O)(=O)c1cc(NC(=O)Cc2ccccc2SC(F)(F)F)ccc1Oc1cccc(Cl)c1 [Example 090, N-[4-(3-Chlorophenoxy)-3-sulfamoylphenyl]-2-{2-[(trifluoromethyl)sulfanyl]phenyl}acetamide] | 442 | 71 |
| Cc1ccncc1CC(=O)Nc1ccc(Oc2cccc(Cl)c2)c(S(N)(=O)=O)c1 [Example 092, N-[4-(3-Chlorophenoxy)-3-sulfamoylphenyl]-2-(4-methylpyridin-3-yl)acetamide] | 3440 | 57 |
| NS(=O)(=O)c1cc(NC(=O)Cc2cccnc2Cl)ccc1Oc1cccc(Cl)c1 [Example 093, N-[4-(3-Chlorophenoxy)-3-sulfamoylphenyl]-2-(2-chloropyridin-3-yl)acetamide] | 216 | 68 |
| NS(=O)(=O)c1cc(NC(=O)C(F)(F)c2ccccc2Cl)ccc1Oc1cccc(Cl)c1 [Example 094, N-[4-(3-Chlorophenoxy)-3-sulfamoylphenyl]-2-(2-chlorophenyl)-2,2-difluoroacetamide] | 200 | 74 |
| NS(=O)(=O)c1cc(NC(=O)Cc2ccccc2OC(F)(F)F)ccc1Oc1cccc(Cl)c1 [Example 105, N-[4-(3-Chlorophenoxy)-3-sulfamoylphenyl]-2-[2-(trifluoromethoxy)phenyl]acetamide] | 203 | 75 |
| NS(=O)(=O)c1cc(NC(=O)C(F)(F)c2ccccc2)ccc1Oc1cccc(Cl)c1 [Example 106, N-[4-(3-Chlorophenoxy)-3-sulfamoylphenyl]-2,2-difluoro-2-phenylacetamide] | 524 | 42 |
| NS(=O)(=O)c1cc(NC(=O)Cc2c(Cl)cccc2C(F)(F)F)ccc1Oc1cccc(Cl)c1 [Example 108, N-[4-(3-Chlorophenoxy)-3-sulfamoylphenyl]-2-[2-chloro-6-(trifluoromethyl)phenyl]acetamide] | 175 | 60 |
| NS(=O)(=O)c1cc(NC(=O)Cc2cc(C(F)(F)F)ccc2Cl)ccc1Oc1cccc(Cl)c1 [Example 109, N-[4-(3-Chlorophenoxy)-3-sulfamoylphenyl]-2-[2-chloro-5-(trifluoromethyl)phenyl]acetamide] | 825 | 56 |
| NS(=O)(=O)c1cc(NC(=O)Cc2cnc(Cl)cc2Cl)ccc1Oc1cccc(Cl)c1 [Example 111, N-[4-(3-Chlorophenoxy)-3-sulfamoylphenyl]-2-(4,6-dichloropyridin-3-yl)acetamide] | 273 | 48 |
| NS(=O)(=O)c1cc(NC(=O)Cc2ncccc2Cl)ccc1Oc1cccc(Cl)c1 [Example 112, N-[4-(3-Chlorophenoxy)-3-sulfamoylphenyl]-2-(3-chloropyridin-2-yl)acetamide] | 289 | 60 |
| NS(=O)(=O)c1cc(NC(=O)Cc2cc(Cl)ccc2Cl)ccc1Oc1cccc(Cl)c1 [Example 114, N-[4-(3-Chlorophenoxy)-3-sulfamoylphenyl]-2-(2,5-dichlorophenyl)acetamide] | 305 | 64 |
| NS(=O)(=O)c1cc(NC(=O)Cc2c(Cl)cc(C(F)(F)F)c(F)c2F)ccc1Oc1cccc(Cl)c1 [Example 115, 2-[6-Chloro-2,3-difluoro-4-(trifluoromethyl)phenyl]-N-[4-(3-chlorophenoxy)-3-sulfamoylphenyl]acetamide] | 1420 | 54 |
| Cc1cc(CC(=O)Nc2ccc(Oc3cccc(Cl)c3)c(S(N)(=O)=O)c2)c(Cl)cc1Br [Example 118, 2-(4-Bromo-2-chloro-5-methylphenyl)-N-[4-(3-chlorophenoxy)-3-sulfamoylphenyl]acetamide] | 1890 | 61 |
| NS(=O)(=O)c1cc(NC(=O)Cc2ccncc2Cl)ccc1Oc1cccc(Cl)c1 [Example 119, N-[4-(3-Chlorophenoxy)-3-sulfamoylphenyl]-2-(3-chloropyridin-4-yl)acetamide] | 164 | 64 |
| Cc1ccc(Cl)c(CC(=O)Nc2ccc(Oc3cccc(Cl)c3)c(S(N)(=O)=O)c2)c1F [Example 121, 2-(6-Chloro-2-fluoro-3-methylphenyl)-N-[4-(3-chlorophenoxy)-3-sulfamoylphenyl]acetamide] | 218 | 62 |
| NS(=O)(=O)c1cc(NC(=O)Cc2cc(F)c(F)cc2Cl)ccc1Oc1cccc(Cl)c1 [Example 123, 2-(2-Chloro-4,5-difluorophenyl)-N-[4-(3-chlorophenoxy)-3-sulfamoylphenyl]acetamide] | 369 | 55 |
| NS(=O)(=O)c1cc(NC(=O)Cc2c(Cl)ccc(Cl)c2Cl)ccc1Oc1cccc(Cl)c1 [Example 125, N-[4-(3-Chlorophenoxy)-3-sulfamoylphenyl]-2-(2,3,6-trichlorophenyl)acetamide] | 506 | 97 |
| Cc1cc(Cl)c(CC(=O)Nc2ccc(Oc3cccc(Cl)c3)c(S(N)(=O)=O)c2)c(Cl)c1 [Example 126, N-[4-(3-Chlorophenoxy)-3-sulfamoylphenyl]-2-(2,6-dichloro-4-methylphenyl)acetamide] | 467 | 81 |
| NS(=O)(=O)c1cc(NC(=O)Cc2c(C(F)(F)F)ccc(Cl)c2Cl)ccc1Oc1cccc(Cl)c1 [Example 127, N-[4-(3-chlorophenoxy)-3-sulfamoylphenyl]-2-[2,3-dichloro-6-(trifluoromethyl)phenyl]acetamide] | 1050 | 66 |
| N#Cc1ccccc1COc1ccc(NC(=O)Cc2ccccc2Cl)cc1S(N)(=O)=O [Example 145, 2-(2-Chlorophenyl)-N-{4-[(2-cyanobenzyl)oxy]-3-sulfamoylphenyl}acetamide] | 194 | 72 |
| CS(=O)(=O)c1ccc(COc2ccc(NC(=O)Cc3ccccc3Cl)cc2S(N)(=O)=O)cc1 [Example 147, 2-(2-Chlorophenyl)-N-(4-{[4-(methylsulfonyl)benzyl]oxy}-3-sulfamoylphenyl)acetamide] | 1270 | 69 |
